Tests used:
[1] = tested on: HULLK; assay: qPCR of HULLK (LCK E11, LCK 3'UTR) in cytoplasmic and nuclear fractions of LNCaP cells; assay type: cell-based, human; details: 1 nM R1881, 24 hrs
Description: FIGS. 3A and 3B illustrate the results of studies designed to characterize HULLK. […] LNCaP cells were seeded for 48 hrs and treated with 1 nM R1881 for 24 hrs. RNA was collected and cDNA was synthesized using strand-specific primers. qPCR was performed with two independent LCK primer sets that amplify HULLK, n=3. […] LNCaP cells were seeded for 48 hrs and treated with 1 nM R1881 for 24 hrs. Whole cell lysates were separated into cytoplasmic and nuclear fractions by centrifugation. RNA was collected from each fraction and cDNA was synthesized using the iScript cDNA synthesis kit. qPCR was performed with two independent LCK primer sets that amplify HULLK, and cytoplasmic and nuclear control genes, n=3.
Some lncRNAs show preferential accumulation in the cytoplasm or nucleus, while other lncRNAs are equally expressed in both compartments. To determine the intracellular localization of HULLK, total RNA was collected to synthesize cDNA from cytoplasmic and nuclear fractions of LNCaP cells starved of hormone or exposed to 1 nM R1881 for 24 hrs and carried out qPCR with LCK E11 and LCK 3′UTR primers to amplify HULLK.

[2] = tested on: HULLK; assay: qPCR of HULLK (LCK 3'UTR / exon 13) transcript levels in response to hormone and AR, p300 or Brd4 inhibition; assay type: cell-based, human; details: for HULLK expression in response to R1881: 1 nM R1881; for R1881-induced increase in LCK 3'UTR transcript levels: 1 nM R1881, 24 hrs
Description: FIGS. 2A through 2E illustrate that HULLK is an AR-regulated lncRNA. […] LNCaP and C42 cells were transduced with two independent shRNAs to LCK and treated with 0-1 nM R1881. RNA was collected on Day 4 and LCK transcript levels were determined using LCK primers targeting the 3′UTR. […] LNCaP and C42 cells were seeded for 48 hrs, and then, treated with 1 nM R1881 in the presence or absence of 10 μM enzalutamide. RNA was collected 24 hrs after treatment and LCK transcript levels were determined by qPCR using LCK primers targeting the 3′UTR. C4-2, DU145, and PC3 cells were seeded in CSS media for 48 hrs, and then, treated with 1 nM R1881 for 16 hrs. RNA was collected and LCK transcript levels were determined using LCK primers targeting the 3′UTR. […] FIG. 2E illustrates that Brd4 inhibition reduces the hormone induction of HULLK, n=3. LNCaP, C42, or Jurkat cells were seeded for 48 hrs in the appropriate growth media, and then, treated with 1 nM R1881 in the presence or absence of 0.3 μM A-485 or 0.1 μM JQ1. RNA was collected 24 hrs after treatment and LCK transcript levels were determined by qPCR using LCK primers targeting exon 13 or 3′UTR. PSA and TMPRSS2 transcripts were determined to verify the efficacy of p300 and Brd4 inhibition.
FIGS. 7A and 7B illustrate the regulation of HULLK by the AR in breast cancer cells. […] LNCaP, MCF7, BT549, and MDA-MD-231 cells were seeded in the appropriate growth media, and whole cell lysates were collected 48 hrs later and blotted for AR21 and ERK1/2. […] MCF7, BT549, and MDA-MB-231 cells were seeded in CSS media for 48 hrs, and then, treated with 1 nM R1881 for 16 hrs. RNA was collected and LCK transcript levels were determined using LCK primers targeting the 3′UTR, n=3.
Cell Culture and Reagents. LNCaP and C4-2 cells (a gift from Dr. L. W. K. Chung) were grown in DMEM:F12 (Invitrogen) with 5% Non-Heat-Inactivated serum (Gemini) and 1% Insulin-Transferrin-Selenium-Ethanolamine (ThermoFisher). CWR22Rv1 (Rv1), VCaP, PC3 (gifts from Drs. Steven Balk, Karen Knudsen, and Chung, respectively), WMPY-1 (ATCC), MCF7, BT549 and MDA-MB-231 (gifts from Dr. Amy Bouton) were grown in DMEM (Invitrogen) with 10% Heat-Inactivated serum. DU145 (a gift from Dr. Chung), PANC1 (a gift from Dr. J. Thomas Parsons), HeLa and Jurkat cells (gifts from Dr. Tim Bender) were grown in RPMI-1640 (Invitrogen) with 10% Heat-Inactivated serum. LHS cells (a gift from Dr. William Hahn) were grown in ProstaLife Epithelial Cell Medium (Lifeline). RWPE-1 (ATCC) cells were grown in Keratinocyte-Serum-Free Media (Invitrogen). For growth and RNA experiments, phenol-red free DMEM:F12 media with 5% Charcoal-Stripped Serum (CSS) (Gemini) was used.
RNA Isolation, qPCR and ddPCR: RNA was collected using TRIzol and quantitated using a NanoDrop 2000 UV-Vis Spectrophotometer (ThermoFisher). cDNA was synthesized using Superscript IV VILO cDNA synthesis kit (Invitrogen). Quantitative real-time PCR (qPCR) was performed as previously described (17,18). Droplet digital PCR (ddPCR) was executed according to the manufacturer's protocol (Bio-Rad).
To assess whether this lncRNA is modulated by hormone, transcript levels of this lncRNA were quantified by qPCR using 3′UTR primers in LNCaP and C4-2 cells transduced in the presence of increasing concentrations of R1881 (FIG. 2A). […] This increase was inhibited in the presence of two independent LCK shRNAs in both cell lines.
This hormone regulation was confirmed by measuring transcript amounts in LNCaP and C4-2 cells treated with vehicle or R1881 in the presence or absence of the anti-androgen enzalutamide (FIG. 2B). As expected, there was an 8-fold and 12-fold R1881-induced increase in LCK 3′UTR transcript levels in LNCaP and C4-2 cells, respectively. […] Androgen deprivation influenced message levels negligibly in LNCaP cells, but decreased transcript amounts of this lncRNA by approximately 2.9-fold in C4-2 cells (FIG. 2B, C4-2 vehicle vs. media). […]

C[C@]1(O)CC[C@H]2[C@@H]3CCC4=CC(=O)CCC4=C3C=C[C@@]21C [R1881]
hormone increase of LCK 3'UTR transcript levels ([1]; cytoplasmic fraction): ~7.6 fold
hormone increase of LCK E11 transcript levels ([1]; cytoplasmic fraction): approximately 5.3 fold
nuclear transcript amounts (LCK E11, LCK 3'UTR) in response to androgens ([1]; nuclear fraction): not influenced by androgens
R1881-induced increase in this lncRNA (HULLK) ([2]; AR-null DU145 and PC3 cells, 1 nM R1881, 16 hrs): no R1881-induced increase
HULLK expression in response to R1881 ([2]; BT549 or MDA-MB-231 cells): not
R1881-induced increase in LCK 3'UTR transcript levels ([2]; C4-2 cells): 12 fold
lncRNA transcripts in response to increasing concentrations of R1881 ([2]; LNCaP and C4-2 cells, 0-1 nM R1881, 3'UTR primers): dose-dependent increase
R1881-induced increase in LCK 3'UTR transcript levels ([2]; LNCaP cells): 8 fold
HULLK expression in response to R1881 ([2]; MCF7 cells): increases

Reference: patent publication US12319967B2, “Methods and compositions for diagnosing and treating prostate cancer based on long noncoding RNA overlapping the LCK gene that regulates prostate cancer cell growth” (University of Virginia Patent Foundation, priority 2019, dated 2025)
